Tests used:
[1] = Molar enthalpy of transition or fusion; settings: Crystal; DSC
[2] = molar heat capacity at constant pressure; settings: 101.33 kPa, Small sample (50 mg) DSC
[3] = Crystal; DTA

CCCCCCCCN [1-octanamine]
Settings	Molar enthalpy of transition or fusion [kcal/mol]
[1]	8.3

[2]
Settings	molar heat capacity at constant pressure [J/K/mol]
214.08 K, Crystal	167.97
215.55 K, Crystal	170.58
217.65 K, Crystal	171.84
218.54 K, Crystal	174.15
220.18 K, Crystal	175.59
221.56 K, Crystal	175.94
223.07 K, Crystal	176.5
224.56 K, Crystal	177.92
226.18 K, Crystal	179.15
227.54 K, Crystal	180.21
229.16 K, Crystal	180.94
230.51 K, Crystal	183.42
232.12 K, Crystal	185.1
233.53 K, Crystal	186.36
235.26 K, Crystal	187
236.54 K, Crystal	188.74
238.13 K, Crystal	189.62
239.53 K, Crystal	191.53
241.11 K, Crystal	193.65
242.56 K, Crystal	195.03
244.04 K, Crystal	196.53
245.1 K, Crystal	197.38
246.25 K, Crystal	197.77
247.23 K, Crystal	198.38
248.63 K, Crystal	203.31
249.05 K, Crystal	203.59
249.65 K, Crystal	203.61
251.8 K, Crystal	204.04
252.23 K, Crystal	204.62
253.02 K, Crystal	206.62
295.09 K, Liquid	304.31
295.53 K, Liquid	304.33
296.13 K, Liquid	304.35
296.41 K, Liquid	304.94
297.1 K, Liquid	304.99
297.32 K, Liquid	305.36
298.16 K, Liquid	305.42
298.58 K, Liquid	305.98
299.02 K, Liquid	306.08
299.35 K, Liquid	306.45
300.13 K, Liquid	306.53
300.53 K, Liquid	306.69
301.18 K, Liquid	307.19
301.52 K, Liquid	307.31
302.16 K, Liquid	307.33
302.56 K, Liquid	307.36
303.28 K, Liquid	307.81
303.51 K, Liquid	308.08
304.44 K, Liquid	308.1
304.71 K, Liquid	308.11
304.99 K, Liquid	308.47
305.64 K, Liquid	308.51
306.11 K, Liquid	308.52
306.59 K, Liquid	308.6
307.38 K, Liquid	308.63
307.5 K, Liquid	308.83
308.05 K, Liquid	308.92
308.54 K, Liquid	309.05
309.16 K, Liquid	309.12
309.24 K, Liquid	309.24
310.24 K, Liquid	309.3
310.53 K, Liquid	309.35
311.07 K, Liquid	309.39
311.51 K, Liquid	310.16
312.64 K, Liquid	310.21
313.22 K, Liquid	310.76

CCCCCCCCCCCO [1-undecanol]
Settings	Molar enthalpy of transition or fusion [kcal/mol]	Triple point temperature [K]
[1]	7.31	–
[3]	–	289.63

[2]
Settings	molar heat capacity at constant pressure [J/K/mol]
208.41 K, Crystal	193.11
209.57 K, Crystal	193.3
210.11 K, Crystal	194.69
211.02 K, Crystal	194.71
212.12 K, Crystal	196.33
213.87 K, Crystal	198.62
214.48 K, Crystal	201.14
215.51 K, Crystal	201.98
216.84 K, Crystal	205.69
217.02 K, Crystal	206.89
218.35 K, Crystal	208.79
219.08 K, Crystal	211.05
220.29 K, Crystal	213.58
221.74 K, Crystal	215.54
222.1 K, Crystal	216.27
223.31 K, Crystal	218.06
224.39 K, Crystal	219.4
225.72 K, Crystal	221.14
226.26 K, Crystal	221.42
227.04 K, Crystal	223.37
228.49 K, Crystal	225.69
229.28 K, Crystal	228.09
230 K, Crystal	228.5
231.02 K, Crystal	229.81
232.16 K, Crystal	232.96
233.13 K, Crystal	234.38
234.75 K, Crystal	235.74
235.83 K, Crystal	237.03
236.92 K, Crystal	238.89
237.34 K, Crystal	238.93
238.6 K, Crystal	239.94
239.8 K, Crystal	239.99
241.66 K, Crystal	243.63
243.34 K, Crystal	245.99
244.18 K, Crystal	246.89
246.11 K, Crystal	250.54
297.08 K, Liquid	405.86
298.17 K, Liquid	407.32
299.23 K, Liquid	408.96
300.25 K, Liquid	409.93
301.38 K, Liquid	411.68
302.21 K, Liquid	412.61
303.18 K, Liquid	413.77
304.11 K, Liquid	414.87
305.18 K, Liquid	415.8
306.27 K, Liquid	417.37
307.49 K, Liquid	418.89
308.58 K, Liquid	419.76
309.32 K, Liquid	421.18
310.02 K, Liquid	422.07
311.09 K, Liquid	423.23
312.51 K, Liquid	425.11
313.48 K, Liquid	426.38
314.66 K, Liquid	427.93
315.71 K, Liquid	429.81
316.18 K, Liquid	430
318.29 K, Liquid	432.46
320.24 K, Liquid	435.26
321.15 K, Liquid	436.27
323.33 K, Liquid	439.56

CCCCCCCCCO [nonan-1-ol]
Settings	Molar enthalpy of transition or fusion [kcal/mol]	Triple point temperature [K]
[1]	5.87	–
[3]	–	268.1

CCCCCCCCO [octan-1-ol]
Settings	Triple point temperature [K]
[3]	258.03

Source: the NIST ThermoML archive (doi:10.1016/j.fluid.2005.07.009)
